The structures appear in SMILES notation. Active and inactive are the calls of the source. The rule behind the calls is not given here.

What all share (assay type): cell-based
Test [1] addresses D(2) dopamine receptor (Homo sapiens) (UniProt P14416). Nature of the test: Antagonist activity at human DRD2L expressed in CHO-K1 cells at 20 uM by PathHunter beta-arrestin assay relative to control. To be noted: filed as antagonist.
Test [2] concerns the target Vasopressin V1a receptor (Homo sapiens) (UniProt P37288). In words: Antagonist activity at AVPR1A in human U2OS cells at 20 uM by PathHunter beta-arrestin assay. To be noted: filed as antagonist.
Test [3] deals with T1, Vasopressin V1b receptor (Homo sapiens) (UniProt P47901).
T1 sequence (whole entry): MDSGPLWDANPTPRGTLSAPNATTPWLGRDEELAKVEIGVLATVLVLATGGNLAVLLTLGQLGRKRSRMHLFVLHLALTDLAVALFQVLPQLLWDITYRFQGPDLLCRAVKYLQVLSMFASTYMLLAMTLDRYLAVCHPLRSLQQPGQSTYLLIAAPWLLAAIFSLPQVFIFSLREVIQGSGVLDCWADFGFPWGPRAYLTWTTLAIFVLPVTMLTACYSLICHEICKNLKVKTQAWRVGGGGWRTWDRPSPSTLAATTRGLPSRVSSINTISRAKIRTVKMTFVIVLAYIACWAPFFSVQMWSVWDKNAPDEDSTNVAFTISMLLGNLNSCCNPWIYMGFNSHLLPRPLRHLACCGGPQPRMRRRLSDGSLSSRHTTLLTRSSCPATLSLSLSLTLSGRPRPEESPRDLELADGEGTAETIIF
Nature of the test: Antagonist activity at human AVPR1B expressed in CHO-K1 cells at 20 uM by PathHunter beta-arrestin assay. Conditions: filed as antagonist.

For test [4], the target named is C-C chemokine receptor type 8 (Homo sapiens, UniProt P51685). In words: Antagonist activity at human CCR8 expressed in CHO-K1 cells by PathHunter beta-arrestin assay.
Chain of C-C chemokine receptor type 8 (P51685 whole entry): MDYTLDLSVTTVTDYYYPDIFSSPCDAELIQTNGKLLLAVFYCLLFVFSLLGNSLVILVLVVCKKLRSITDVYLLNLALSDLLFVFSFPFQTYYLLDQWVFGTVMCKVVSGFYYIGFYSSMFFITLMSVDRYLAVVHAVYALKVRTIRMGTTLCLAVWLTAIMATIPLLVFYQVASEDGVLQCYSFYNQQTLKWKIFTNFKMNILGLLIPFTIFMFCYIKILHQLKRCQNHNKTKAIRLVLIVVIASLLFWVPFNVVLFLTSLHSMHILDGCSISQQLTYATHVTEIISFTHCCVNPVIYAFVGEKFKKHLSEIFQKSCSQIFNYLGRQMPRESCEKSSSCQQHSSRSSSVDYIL
Test [5] deals with T2, CX3C chemokine receptor 1 (Homo sapiens, UniProt P49238).
T2 sequence (P49238 whole entry): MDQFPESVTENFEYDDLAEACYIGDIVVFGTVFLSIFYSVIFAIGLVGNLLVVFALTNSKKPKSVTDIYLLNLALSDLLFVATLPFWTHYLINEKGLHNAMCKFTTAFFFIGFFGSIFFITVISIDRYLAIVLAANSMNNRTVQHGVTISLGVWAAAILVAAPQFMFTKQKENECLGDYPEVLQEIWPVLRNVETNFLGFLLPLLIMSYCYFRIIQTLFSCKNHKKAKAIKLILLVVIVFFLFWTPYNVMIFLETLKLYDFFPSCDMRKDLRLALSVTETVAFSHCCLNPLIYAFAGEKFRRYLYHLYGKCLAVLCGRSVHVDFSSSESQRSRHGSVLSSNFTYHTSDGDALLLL
In words: Antagonist activity at human CX3CR1 expressed in CHO-K1 cells by PathHunter beta-arrestin assay.

The target in test [6] is C-X-C chemokine receptor type 4 (Homo sapiens, UniProt P61073). In words: Antagonist activity at human CXCR4 expressed in mouse C2C12 cells by PathHunter beta-arrestin assay.
Chain of C-X-C chemokine receptor type 4 (P61073 whole entry): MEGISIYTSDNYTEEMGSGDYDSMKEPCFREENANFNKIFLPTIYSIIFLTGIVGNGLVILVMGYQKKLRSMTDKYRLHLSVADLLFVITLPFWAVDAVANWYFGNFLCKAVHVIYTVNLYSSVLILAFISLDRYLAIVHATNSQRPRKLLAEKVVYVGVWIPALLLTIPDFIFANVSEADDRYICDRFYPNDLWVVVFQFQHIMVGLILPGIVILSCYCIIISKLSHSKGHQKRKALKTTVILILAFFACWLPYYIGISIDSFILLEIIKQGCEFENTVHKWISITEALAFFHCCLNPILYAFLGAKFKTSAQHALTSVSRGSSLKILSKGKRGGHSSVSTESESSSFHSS

Chain of D(2) dopamine receptor (Homo sapiens) (P14416 whole entry): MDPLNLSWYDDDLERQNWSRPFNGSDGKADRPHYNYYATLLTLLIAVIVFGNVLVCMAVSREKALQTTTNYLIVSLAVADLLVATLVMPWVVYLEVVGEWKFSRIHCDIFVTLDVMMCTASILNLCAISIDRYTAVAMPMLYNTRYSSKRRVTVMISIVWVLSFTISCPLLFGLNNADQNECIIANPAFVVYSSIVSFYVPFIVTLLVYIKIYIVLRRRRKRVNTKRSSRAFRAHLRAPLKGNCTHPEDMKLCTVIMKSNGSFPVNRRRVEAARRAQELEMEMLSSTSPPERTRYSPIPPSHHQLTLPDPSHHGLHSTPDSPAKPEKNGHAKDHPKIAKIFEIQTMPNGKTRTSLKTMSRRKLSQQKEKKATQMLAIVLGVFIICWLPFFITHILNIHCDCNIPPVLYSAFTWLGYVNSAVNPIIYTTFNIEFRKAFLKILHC
Chain of Vasopressin V1a receptor (Homo sapiens) (P37288 whole entry, looked up): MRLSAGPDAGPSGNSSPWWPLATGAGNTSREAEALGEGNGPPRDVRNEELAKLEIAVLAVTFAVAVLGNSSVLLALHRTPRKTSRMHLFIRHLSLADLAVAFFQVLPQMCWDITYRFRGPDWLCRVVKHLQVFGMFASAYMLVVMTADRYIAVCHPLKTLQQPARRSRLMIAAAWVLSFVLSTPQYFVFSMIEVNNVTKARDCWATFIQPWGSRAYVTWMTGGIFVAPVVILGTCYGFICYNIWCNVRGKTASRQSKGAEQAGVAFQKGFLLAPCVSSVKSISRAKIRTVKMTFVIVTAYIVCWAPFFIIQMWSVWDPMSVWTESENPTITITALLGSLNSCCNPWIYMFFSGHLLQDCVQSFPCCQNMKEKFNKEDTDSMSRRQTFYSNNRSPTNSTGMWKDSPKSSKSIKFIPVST

`COC(=O)[C@@H]1[C@H]2C[C@@H]3N(CC[C@@]34C(=O)N(Cc3cccc(OC)c3)c3ccccc34)C[C@@H]2CC[C@@H]1OCc1cccc(OC)c1`: the inhibition in test [1] was 9%. In addition, the inhibition result in test [2] and in test [3] was “Active” throughout.
In the case of `COC(=O)[C@@H]1[C@H]2C[C@@H](c3[nH]c4ccccc4c3CCn3cc(-c4cccc(Cl)c4)nn3)N(C#N)C[C@@H]2CC[C@@H]1O`, the IC50 in test [4] came out at 7.29 µM; in test [5], 8.47 µM; in test [6] it was 7.94 µM.

As a reminder, the inhibition is the percentage by which the read-out fell short of the control. In general, IC50 refers to the concentration needed to halve the response being measured. Low values mean greater potency in that assay, high ones weaker potency in that assay.

The values above are taken from ChEMBL document CHEMBL4725259 (Bioorg Med Chem, 2020).
